In patent US6610648B2, “Malodor counteractant compositions” (Givaudan SA, priority 2000, dated 2003):
Where “and” joins values, the source holds several entries; their conditions need not be identical. Identical values can stand only once. Counter-ions that a name gives are not always drawn.

Experiments:
Design in all cases: species or system human
[1] = MOC of sweat malodor on fabric swatches; details: Table 6
Experimental: The following fabric treatment solutions were prepared:
1. A solution of ethanol and Cremophor (a hydrogenated ethoxylated castor oil marketed by BASF Corp., Mount Olive, N.J.) containing 10% (wt) of dihexyl fumarate (DHF).
2. A solution of ethanol and Cremophor containing 10% (wt) of OMC.
3. A solution of ethanol and Cremophor containing 5% (wt) of DHF+5% (wt) OMC.
Five (5) fabric swatches were prepared, and labeled A-E. Swatch A was designated as the control swatch with no malodor. 100 μl of sweat malodor was placed in the middle of swatches B-E. Swatch B was designated as the control swatch for the malodor. The swatches were allowed to equilibrate with the malodor for 20 minutes. Onto swatches C-E, the following solutions were sprayed:
The malodor intensity on the cotton swatches was evaluated as follows:
The malodor intensity on swatch B (Malodor Control) was identified as a 5 (overpoweringly strong) on the scale of 1-5 set forth below at every time point, and the rest of swatches were evaluated based on that standard.

[2] = Synthetic axilla malodor on cotton pads, 10-member panel rating of malodor strength; details: for Class A + Malodor (strength of the axilla malodor, panel score): 0.4 g ethanolic solution with 10% (wt) test compound on malodor pad, 10-member panel after 3 hours; for Class A + Malodor (strength of the axilla malodor, panel score) / 50% DHF/50% Class A (strength of the axilla malodor, panel score): scale 5 overpowering to 1 not detectable; for 50% DHF/50% Class A (strength of the axilla malodor, panel score): test solution 5% (wt) DHF and 5% (wt) Class A compound, after 3 hours
Experimental: 100 μl of synthetic axilla malodor was placed onto cotton pads. 0.4 g of an ethanolic solution containing 10% (wt) of a test compound identified in Table 1 was placed on each axilla malodor treated cotton pad. Each pad was allowed to dry 15 for minutes, and then evaluated using a 10-member panel after 3 hours. The test cotton pads were randomized, and each panelist was asked to check a box that represented the strength of the axilla malodor using the following scale:
In this example, the MO effect of various mixtures of a Class A MOC compound and a Class B MOC compound (i.e., dihexyl fumarate (“DHF”) as disclosed in Kulka, U.S. Pat. No. 3,074,892) were evaluated using the same test and malodor evaluation procedures as set forth in Example 1. Each test sol ion contained 5% (wt) DHF and 5% (wt) of the Class A compound identified in Table 3. The MOC effect was evaluated as in Example 1.
Various mixtures of OMC (a Class A Compound) and a Class B compound (i.e., various cyclohexyl esters as disclosed in Schleppnik '221) as identified in Table 4 below were made according to the procedure set forth in Example 1. The MOC of each mixture was evaluated using the procedure set forth in Example 1.

[3] = Garlic malodor on cotton fabric, 20-member panel; details: 0.4 g of 5% OMC in ethanol on cotton pad with 2.5% (wt) garlic solution; average of 20 panelists; three hours; scale 1-5
Experimental: (§1) The ability of OMC to reduce the malodor intensity of tobacco smoke, onion, and garlic solutions on cotton fabric was determined.
(§2) Cotton cloth pads were evaluated by 20 panelists to determine how well OMC reduced the perceived odor of tobacco smoke, onion, and garlic solutions on cotton fabric.
(§3) Samples were prepared fresh before each evaluation. A solution of 2.5% (wt) garlic and a solution of 2.5% (wt) onion were both made using 39C alcohol as the solvent. Briefly, 0.4 g of the garlic and onion solutions were each sprayed onto cotton towel pads (100% cotton, 5×5cm). 0.4 g of a test solution containing 5% OMC in ethanol were then sprayed on the onion and garlic-treated cotton pads. The pads were allowed to dry for 15-20 minutes under a fume hood. Each pad was then placed in a blind coded Petri-dish.
(§4) Controls were prepared from cotton pads, which were treated only with the garlic or onion solution (i.e., no OMC test solution).
(§5) The effect of the test solutions on the garlic or onion odors were evaluated by asking a 20-member panel to rate the intensity of the malodor present on the controls and on the treated fabrics using a scale of 1-5 as shown below three hours after the preparation of each sample. The data are average values from the scores by each of the 20 panelists.

[4] = Tobacco smoke malodor on cotton fabric, 20-member panel; details: 0.4 gram of 5% (wt) OMC in ethanol on smoke-treated cotton fabric; average of 20 panelists; three hours; scale 1-5
Experimental: as §1, §2, §5
Samples were prepared fresh before each evaluation. Clean pieces of fabric were treated with smoke by placing each fabric piece in a smoked filled environment for 10 minutes. Each piece of fabric was sprayed with 0.4 gram of the 5% (wt) OMC in ethanol test solution set forth above in the garlic and onion example. The treated fabric pieces were left to dry for 15 minutes, and then wrapped in foil.
Controls were prepared from a smoke-treated piece of cloth that was not sprayed with a test solution.
The fabric pieces were evaluated in the same way as described above in the onion and garlic example.

[5] = Onion malodor on cotton fabric, 20-member panel; details: 0.4 g of 5% OMC in ethanol on cotton pad with 2.5% (wt) onion solution; average of 20 panelists; three hours; scale 1-5
Experimental: as §1, §2, §3, §4, §5

SMILES	Class A + Malodor (strength of the axilla malodor, panel score) [2]	50% DHF/50% Class A (strength of the axilla malodor, panel score) [2]	further results
CCCCCCOC(=O)/C=C/C(=O)OCCCCCC [Dihexyl Fumarate, reference compound]			MOC effect in words, compound alone [1]: had a MOC effect; 10% test (Compound B Alone) malodor score ([2]; 10% Class B compound alone, procedure of Example 1, scale 1-5): 2.6; 5% OMC + 5% Compound B malodor score ([2]; mixture 5% OMC + 5% Class B compound, procedure of Example 1, scale 1-5): 2.3
CCCCCCCCCCOC(=O)/C=C/c1ccccc1 [GR 85 3428]	2.8	3.3	
C/C(=C\c1ccccc1O)C(=O)OCCC(C)CCc1ccccc1 (centres unmarked) [GR 85-1407]	3.4	3.0	
CC(C)=CCCC(C)CCOC(=O)/C=C/c1ccccc1O (centres unmarked) [GR 85-2280]	2.9	3.1	
CC(C)=CCCC(C)CCOC(=O)/C(C#N)=C/c1ccccc1O (centres unmarked) [GR 85-2661]	2.9	2.4	
COc1ccc(OC)c(/C=C/C(=O)OCCC(C)CCC=C(C)C)c1 (centres unmarked) [GR 85-3260]	3.5	2.9	
COC(=O)/C(C#N)=C/c1ccccc1 [GR 85-3427]	3.0	3.3	
CCCCC(CC)COC(=O)/C=C/c1ccccc1 (centres unmarked) [GR 85-3429]	3.3	2.8	
CC(C)=CCCC(C)CCOC(=O)/C=C/c1ccccc1O[Si](C)(C)C (centres unmarked) [GR 85-3565]	2.7	3.1	
CCCCC(C)COC(=O)C1=Cc2ccc(OC)cc2CC1 (centres unmarked) [GR 85-6495]	2.8	3.0	
CCCCC(C)COC(=O)c1cc2ccccc2oc1=O (centres unmarked) [GR 85-6924]	2.9	2.5	
CCCCC(CC)COC(=O)/C=C/c1ccc(OC)cc1 (centres unmarked) [OMC, Octyl methoxy cinnamate]	2.6	2.3	Malodor intensity, Garlic [3]: 2.6; Malodor intensity, Smoke [4]: 1.8; Malodor intensity, Onion [5]: 2.7; MOC effect in words, compound alone [1]: had a MOC effect; 10% OMC (Alone) malodor score ([2]; 10% OMC alone, run beside the Compound B of that line, scale 1-5): 3.1 and 2.6 and 3.0; MOC effect in words, mixture of Class A and Class B compound versus alone ([2]; axilla malodor test pads, Tables 3 and 4): acts at least additively with the Class B compounds
O=C(/C=C/c1ccccc1)OCCc1ccccc1 [PC, Phenylethylcinnamate]	2.2		
